Values quoted from earlier work, collected in patent US10174015B2, “Substituted heterocyclic derivative, preparation method and use thereof” (Xiamen University, priority 2014, dated 2019).

How the values were obtained:
[1] = test system: leukocyte migration and inflammatory exudation; details: topical administration; cited from earlier work
NAAA = NAAA inhibitor, literature value; cited from earlier work

Compound: O=C(CCc1ccccc1)N[C@H]1COC1=O [S-OOPP]
- effect on leukocyte migration and inflammatory exudation [1]: inhibiting leukocyte migration and inflammatory exudation
- IC50 (NAAA): 420 nM
